Measured values: patent publication US20260240869A1, “ANTIPSEUDOMONAL FUSIDIC ACID COMPOUNDS” (priority 2022, published 2026)
Converted amounts (≈) assume the structure as drawn. Read-outs that look alike come from different tables or passages of the source.

Experiments:
P. aeruginosa PAO1 = experiment: NPN outer membrane permeability assay; type: cell-based, Pseudomonas aeruginosa; details: treatment for ten minutes
Excerpt: Further, the fluorescent probe N-phenylnapthylamine (NPN) was used to assess outer membrane permeability changes upon treatment with FA, gentamicin, and FA prodrug. NPN is membrane impermeable and is only weakly fluorescent in aqueous solutions. Upon entry to the cell and interacting with phospholipids, significant fluorescence is observed. […] This residual membrane depolarizing antibacterial activity can be observed in the FA polyamine (FIG. 4a) and the diacylated compound (Table 9).

P. aeruginosa PA14 = experiment: MIC, P. aeruginosa PA14; type: cell-based, Pseudomonas aeruginosa; details: Pseudomonas aeruginosa
Experimental: (§1) Antimicrobial Susceptibility Tests. Susceptibility testing was performed in biological triplicate, using the microdilution broth method as outlined by the Clinical and Laboratory Standards Institute. Bacteria were cultured with cation-adjusted Meuller-Hinton broth (Sigma-Aldrich; catalogue number: 90922) or Luria-Bertani (LB) broth (Lennox) in round-bottom 96-well plates (Corning; catalogue number: 3788).

[1] = Hydrolysis of prodrug in CAMH; type: physicochemical; details: In CAMH at 37° C.
Excerpt: As a result, amidoxime prodrug versions containing variable amine linkers were designed (Table 8).

E. coli MG1655 = experiment: LC-MS/MS whole-cell accumulation assay, E. coli MG1655; type: cell-based; details: E. coli MG1655; accumulation of FA reported (Table 8)
Experimental: Accumulation Assay. The accumulation assay was performed in triplicate in batches of ten samples, with each batch containing tetracycline or ciprofloxacin as a positive control. P. aeruginosa PAO1, PAO1 A6, PA14, PA14 A40, and PA1280, and E. coli MG1655 were used in these experiments. For each replicate, 2.5 mL (E. coli) or 5 mL (P. aeruginosa) of an overnight culture was diluted into 250 mL of fresh Luria-Bertani broth (Lennox) or Tryptic Soy Broth (TSB) and grown at 37° C. with shaking to an optical density (OD600) of 0.55-0.60. The bacteria were pelleted at 3220 r.c.f. for 10 min at 4° C., and the supernatant was discarded. The pellets were resuspended in 40 mL of phosphate buffered saline (PBS) and pelleted as before, and the supernatant was discarded. The pellets were resuspended in 8.8 mL of fresh PBS and aliquoted into ten, 1.5 mL Eppendorf tubes (875 μL each). The number of colony-forming units (CFUs) was determined by a calibration curve. The samples were equilibrated at 37° C. with shaking for 5 min; compound was added (final concentration=50 μM), and then the samples were incubated at 37° C. with shaking for either 10 min. These time points were short enough to minimize metabolic and growth changes (no changes in OD600 or CFU count observed). After incubation, 800 μL of the cultures was carefully layered on 700 μL of silicone oil (9:1 AR20/Sigma High Temperature, cooled to −78° C.). Bacteria were pelleted through the oil by centrifuging at 13 000 r.c.f. for 2 min at room temperature (with the supernatant remaining above the oil); the supernatant and oil were then removed by pipetting. To lyse the samples, each pellet was dissolved in […] of water, and then, they were subjected to three (E. coli) or four (P. aeruginosa) freeze-thaw cycles of 3 min in liquid nitrogen followed by 3 min in a water bath at 65° C. P. aeruginosa samples were then treated with 50 µM DNase and RNase and incubated at 37° C. for 15 minutes. The lysates were pelleted at 13 000 r.c.f. for 2 min at room temperature, and the supernatant was collected ([…]). The debris was resuspended in 100 μL of methanol and pelleted as before. The supernatants were removed and combined with the previous supernatants collected. Finally, the remaining debris was removed by centrifuging at 20 000 r.c.f. for 10 min at room temperature. Supernatants were analyzed by LC-MS/MS.
Samples were analyzed with the 5500 QTRAP LC/MS/MS system (AB Sciex) with a 1200 series HPLC system (Agilent Technologies) including a degasser, an autosampler, and a binary pump. Liquid chromatography separation was performed on an Agilent SB-Aq column (4.6×50 mm, 5 μm) (Agilent Technologies) with mobile phase A (0.1% formic acid in water) and mobile phase B (0.1% formic acid in acetonitrile). The flow rate was 0.3 mL/min. The linear gradient was as follows: 0-3 min, 100% mobile phase A; 10-15 min, 2% mobile phase A; 15.5-21 min, 100% mobile phase A. The autosampler was set at 5° C. The injection volume was 15 μL. Mass spectra were acquired with both positive electrospray ionization at the ion spray voltage of 5500 V and negative electrospray ionization at the ion spray voltage of −4500 V. The source temperature was 450° C. The curtain gas, ion source gas 1, and ion source gas 2 were 33, 50, and 65, respectively. Multiple reaction monitoring was used to quantify the metabolites. Power analysis was not used to determine the number of replicates. Error bars represent the standard error of the mean of three biological replicates. The statistical significance of the accumulation was determined using a two sample Welch's t test (one-tailed test, assuming unequal variance) relative to the negative controls. All compounds evaluated in the biological assays were >95% pure.

[2] = tested on: hyperporinated P. aeruginosa A6 efflux deficient strain (PAO1 pore-A6); experiment: microbe, parasite or virus in culture; type: cell-based; details: Pseudomonas aeruginosa, PAO1, read-out: MIC against PAO1 pore-A6
Experimental: as §1

| Structure (SMILES) | NPN fluorescence (outer membrane permeability) (P. aeruginosa PAO1) | MIC (P. aeruginosa PA14; PA14) | period of hydrolysis to fusidic acid [1] | EC Accumulation (FA) (E. coli MG1655) | MIC (P. aeruginosa PA14; Reference strain PA14 (Table 11), read-out: MIC) | MIC [2] |
| --- | --- | --- | --- | --- | --- | --- |
| CC(=O)O[C@H]1C[C@@]2(C)[C@@H](C[C@@H](O)[C@H]3[C@@]4(C)CC[C@@H](O)[C@@H](C)[C@@H]4CC[C@@]32C)/C1=C(\CCC=C(C)C)C(=O)O/N=C(\N)CNCCCNCCCNCCCN [FA prodrug, (3R, 4S,5S,8S,9S,10S,11R,13R,14S,16S,Z)-17-((Z)-1,14-diamino-22-methyl-17-oxo-16-oxa-4,8,12,15-tetraazatricosa-14,21-dien-18-ylidene)-3,11-dihydroxy-4,8,10,14-tetramethylhexadecahydro-1H-cyclopenta[a]phenanthren-16-yl acetate] | dose-dependent increase | 8 µg/mL | 48 h | 3337 ± 175 nmol/1012 CFUs |  |  |
| CC(=O)O[C@H]1C[C@@]2(C)[C@@H](C[C@@H](O)[C@H]3[C@@]4(C)CC[C@@H](O)[C@@H](C)[C@@H]4CC[C@@]32C)/C1=C(\CCC=C(C)C)C(=O)O [FA, Fusidic acid] | did not lead to any change in fluorescence |  |  | 52 ± 5 nmol/1012 CFUs | > 1020 µg/mL | 4 µg/mL (≈ 7.74 µM) |
